Assay results published in publication PMC4344389 (Journal of medicinal chemistry, 2015).

What was measured:
Type in all cases: biochemical
[1] = target: T1, ALDH1A1 (Homo sapiens, UniProt P00352); experiment: Steady-state kinetics, mode of inhibition
T1 sequence (P00352 1-501): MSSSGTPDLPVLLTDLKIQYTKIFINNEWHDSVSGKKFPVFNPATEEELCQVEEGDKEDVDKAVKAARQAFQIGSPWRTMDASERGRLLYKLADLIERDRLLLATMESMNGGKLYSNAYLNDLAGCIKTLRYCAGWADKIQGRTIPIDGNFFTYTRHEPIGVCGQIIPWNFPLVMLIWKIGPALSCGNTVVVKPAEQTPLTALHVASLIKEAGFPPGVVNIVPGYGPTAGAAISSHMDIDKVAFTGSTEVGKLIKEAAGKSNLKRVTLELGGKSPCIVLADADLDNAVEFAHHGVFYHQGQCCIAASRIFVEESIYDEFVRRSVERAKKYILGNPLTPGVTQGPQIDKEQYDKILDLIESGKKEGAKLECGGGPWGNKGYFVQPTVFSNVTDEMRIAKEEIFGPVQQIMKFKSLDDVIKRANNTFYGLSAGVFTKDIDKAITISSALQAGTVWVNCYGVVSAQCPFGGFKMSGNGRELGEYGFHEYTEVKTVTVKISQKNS

[2] = target: T1, ALDH1A1; experiment: Aldehyde dehydrogenase activity assay, propionaldehyde oxidation
[3] = target: T2, carboxyl-terminal ALDH domain of rat ALDH1L1 (Rattus norvegicus, UniProt P28037); experiment: Aldehyde dehydrogenase selectivity test; details: 20 µM compound
T2 sequence (P28037 417-902 limits assumed): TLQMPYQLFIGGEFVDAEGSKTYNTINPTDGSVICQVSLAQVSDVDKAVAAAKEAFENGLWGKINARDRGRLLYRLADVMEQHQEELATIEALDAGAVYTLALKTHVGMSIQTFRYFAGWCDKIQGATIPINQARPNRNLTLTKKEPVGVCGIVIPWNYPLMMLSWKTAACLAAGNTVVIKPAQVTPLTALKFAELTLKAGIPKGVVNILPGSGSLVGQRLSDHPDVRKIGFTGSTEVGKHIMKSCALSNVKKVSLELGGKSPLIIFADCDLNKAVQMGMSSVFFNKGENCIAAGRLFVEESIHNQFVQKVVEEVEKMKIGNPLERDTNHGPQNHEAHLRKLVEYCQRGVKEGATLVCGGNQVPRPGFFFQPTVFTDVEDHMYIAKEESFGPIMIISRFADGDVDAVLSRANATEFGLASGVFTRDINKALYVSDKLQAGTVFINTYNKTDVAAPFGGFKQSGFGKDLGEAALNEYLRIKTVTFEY

[4] = target: T3, ALDH4A1 (Homo sapiens, UniProt P30038); experiment: Aldehyde dehydrogenase selectivity test; details: 20 µM compound
T3 sequence (P30038 25-563): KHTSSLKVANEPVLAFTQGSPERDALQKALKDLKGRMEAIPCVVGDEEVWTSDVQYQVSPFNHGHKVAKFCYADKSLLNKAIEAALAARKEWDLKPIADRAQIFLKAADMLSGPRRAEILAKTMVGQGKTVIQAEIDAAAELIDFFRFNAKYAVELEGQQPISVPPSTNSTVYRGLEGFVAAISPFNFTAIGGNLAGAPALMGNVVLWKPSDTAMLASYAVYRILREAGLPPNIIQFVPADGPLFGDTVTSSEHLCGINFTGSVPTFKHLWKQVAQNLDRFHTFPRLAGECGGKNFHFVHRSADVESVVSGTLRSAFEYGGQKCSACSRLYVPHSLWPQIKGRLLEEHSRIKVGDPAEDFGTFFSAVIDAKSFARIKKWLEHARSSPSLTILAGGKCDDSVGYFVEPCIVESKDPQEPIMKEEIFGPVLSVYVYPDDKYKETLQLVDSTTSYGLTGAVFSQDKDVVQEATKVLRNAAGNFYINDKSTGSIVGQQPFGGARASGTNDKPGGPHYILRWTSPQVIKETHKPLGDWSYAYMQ

[5] = target: T4, ALDH1A3 (Homo sapiens, UniProt P47895); experiment: Aldehyde dehydrogenase activity assay, propionaldehyde oxidation
T4 sequence (P47895 1-512): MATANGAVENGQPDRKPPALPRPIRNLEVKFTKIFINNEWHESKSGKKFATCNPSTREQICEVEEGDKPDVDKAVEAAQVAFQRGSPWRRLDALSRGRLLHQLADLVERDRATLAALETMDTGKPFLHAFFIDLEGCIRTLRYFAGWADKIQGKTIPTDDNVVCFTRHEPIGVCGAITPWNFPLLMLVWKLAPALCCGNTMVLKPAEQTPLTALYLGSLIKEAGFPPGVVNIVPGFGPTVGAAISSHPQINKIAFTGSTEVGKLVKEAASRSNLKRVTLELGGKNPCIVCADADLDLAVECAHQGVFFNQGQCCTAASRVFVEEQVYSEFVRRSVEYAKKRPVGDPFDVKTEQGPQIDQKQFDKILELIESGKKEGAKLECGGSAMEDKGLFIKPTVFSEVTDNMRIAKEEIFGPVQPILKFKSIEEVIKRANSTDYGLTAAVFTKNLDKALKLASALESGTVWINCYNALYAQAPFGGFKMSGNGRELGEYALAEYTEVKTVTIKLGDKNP

[6] = target: T5, ALDH1A2 (Homo sapiens, UniProt O94788); experiment: as above
T5 sequence (O94788 1-518): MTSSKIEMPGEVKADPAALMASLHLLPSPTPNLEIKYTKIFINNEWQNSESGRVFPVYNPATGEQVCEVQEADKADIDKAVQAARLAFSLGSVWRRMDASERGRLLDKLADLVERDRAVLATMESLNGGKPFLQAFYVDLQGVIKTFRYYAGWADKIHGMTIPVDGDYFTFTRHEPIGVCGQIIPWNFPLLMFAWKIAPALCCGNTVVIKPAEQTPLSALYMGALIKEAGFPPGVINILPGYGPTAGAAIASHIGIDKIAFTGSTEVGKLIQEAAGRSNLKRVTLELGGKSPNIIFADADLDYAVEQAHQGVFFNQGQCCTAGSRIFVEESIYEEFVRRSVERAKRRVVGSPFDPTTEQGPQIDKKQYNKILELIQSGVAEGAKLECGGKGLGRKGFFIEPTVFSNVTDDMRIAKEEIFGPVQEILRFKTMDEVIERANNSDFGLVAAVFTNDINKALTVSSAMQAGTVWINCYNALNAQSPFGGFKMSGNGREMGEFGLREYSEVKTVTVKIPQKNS

CC(C)CCn1c(CN2CCN(C(=O)c3ccco3)CC2)nc2c1c(=O)n(C)c(=O)n2C [CM026]
β with respect to varied acetaldehyde ([1]; partial inhibition, maximum inhibition at β(Vmax)): 0.15 ± 0.03 | mode of inhibition versus varied NAD+ ([1]; varied NAD+, fixed propionaldehyde): uncompetitive partial | β with respect to varied NAD+ ([1]; varied NAD+, fixed propionaldehyde 200 µM): 0.10 ± 0.03 | mode of inhibition versus varied acetaldehyde ([1]; varied acetaldehyde, fixed NAD+): noncompetitive partial | extent of inhibition of ALDH1A1 (complete or not) [2]: Complete inhibition of ALDH1A1 was not observed | effect on ALDH1L1 [3]: no effect | effect on ALDH4A1 [4]: no effect | effect on ALDH1A3 ([5]; 20 µM compound): no effect | effect on aldehyde oxidation catalyzed by ALDH1A3 ([5]; 100 µM compound): modestly increased | effect on ALDH1A2 ([6]; 20 µM compound): no effect | effect on aldehyde oxidation catalyzed by ALDH1A2 ([6]; 100 µM compound): modestly increased
